The assay deals with Histamine H2 receptor (Cavia porcellus) (UniProt P47747). The assay can be described thus: Antagonism of histamine stimulated rate of beating of guinea pig right atrium mediated by Histamine H2 receptor. To be noted: Cardiac atrium. Format: functional, tissue-based.
Histamine H2 receptor (Cavia porcellus), sequence (P47747 whole entry): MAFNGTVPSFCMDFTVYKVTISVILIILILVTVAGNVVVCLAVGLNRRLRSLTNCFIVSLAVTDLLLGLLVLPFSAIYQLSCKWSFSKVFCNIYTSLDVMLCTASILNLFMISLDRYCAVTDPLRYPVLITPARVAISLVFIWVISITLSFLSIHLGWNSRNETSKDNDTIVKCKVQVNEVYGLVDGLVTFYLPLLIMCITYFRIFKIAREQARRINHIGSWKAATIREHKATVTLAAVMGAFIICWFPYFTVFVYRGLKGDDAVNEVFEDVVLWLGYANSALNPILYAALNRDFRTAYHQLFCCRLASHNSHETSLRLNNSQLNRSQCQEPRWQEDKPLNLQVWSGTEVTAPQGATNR
Consider `Cc1[nH]cnc1CSCC/N=C(\N)c1ccc(C(=O)O)cc1`, for which the -Log KB came to 3.7.

`CN/C(=N\CCSCc1[nH]cnc1C)S(=O)O`: the -Log KB came out at 5.73.

With `CN/C(=N\CCSCc1nc[nH]c1C)NC#N`, the -Log KB is 6.1.

`CN/C(=N\CCSCc1[nH]cnc1C)P(=O)(O)OC` showed a -Log KB of 4.25.

In turn, `Cc1[nH]cnc1CSCCNc1cc(C(=O)O)ccn1` gave a -Log KB of 3.76.

In turn, `Cc1[nH]cnc1CSCCNc1ncccc1O` returned a -Log KB of 5.89.

As to `Cc1[nH]cnc1CSCCNc1ccc(C(=O)O)cn1`, the -Log KB is less than 3.3.

Turning to `Cc1[nH]cnc1CSCC/N=C(\N)C(=O)O`, the -Log KB was determined as 5.41.

`Cc1[nH]cnc1CSCCNc1ncccc1S(=O)(=O)O` displayed a -Log KB of 3.77.

Compound `Cc1[nH]cnc1CSCCNc1ncccc1C(=O)O` yielded a -Log KB of 5.09.

On to `Cc1[nH]cnc1CSCC/N=C(\N)c1ccc(O)cc1`, for which the -Log KB stood at 4.2.

Compound `CN/C(=N\CCSCc1[nH]cnc1C)S(=O)(=O)O` showed a -Log KB of 5.87.

For `Cc1[nH]cnc1CSCC/N=C(\N)CC(=O)O`, the -Log KB is 3.3.

The values above are taken from ChEMBL document CHEMBL1123905.
